# According to PMC11855827, “High-Throughput Screening of Five Compound Libraries for Anthelmintic Activity and Toxicity Leads to the Discovery of Two Flavonoid Compounds” (International Journal of Molecular Sciences, 2025):
# Like-named read-outs stand apart in the source and are kept apart here.
# Test system: C. elegans
# Experiment: microbe, parasite or virus in culture
# Details: Caenorhabditis elegans
# [1] = 0 h, read-out: Percentage of motility inhibition 0 h, Table S2, C. elegans SS assay, 110 μM, 0 h, averages of 4 data points
# [2] = 24 h, read-out: Percentage of motility inhibition 24 h, Table S2, C. elegans SS assay, 110 μM, 24 h, averages of 4 data points
# [3] = 0 h, read-out: Percentage of motility inhibition 0 h
# [4] = 24 h, read-out: Percentage of motility inhibition 24 h
Structure (SMILES),inhibition at 110 µM [1] [%],inhibition at 110 µM [2] [%],inhibition at 110 µM [3] [%],inhibition at 110 µM [4] [%]
O=c1c(-c2ccc(O)cc2)coc2cc(O)cc(O)c12 [Genistein],5,2,,
O=C(N[C@H](CO)[C@H](O)c1ccc([N+](=O)[O-])cc1)C(Cl)Cl [Chloramphenicol],6,2,,
CC[C@H]1OC(=O)[C@H](C)[C@@H](O[C@H]2C[C@@](C)(OC)[C@@H](O)[C@H](C)O2)[C@H](C)[C@@H](O[C@@H]2O[C@H](C)C[C@H](N(C)C)[C@H]2O)[C@](C)(OC)C[C@@H](C)C(=O)[C@H](C)[C@@H](O)[C@]1(C)O [Clarithromycin],12,10,,
O=c1c(O[C@@H]2O[C@@H](CO)[C@H](O)[C@H]2O)c(-c2ccc(O)c(O)c2)oc2cc(O)cc(O)c12 [Avicularin],33,21,,
CC(C)C1=Cc2ccc3c(c2C(=O)C1=O)CCCC3(C)C [Miltirone],0,36,,
O=C(O)c1ccncc1 [Isonicotinic acid],0,0,,
CC(C)=CCc1c(O)c(CC=C(C)C)c2oc3c(O)cccc3c(=O)c2c1O [8‐Deoxygartanin],14,0,,
COC(=O)C1=CO[C@@H](O[C@@H]2O[C@H](CO)[C@@H](O)[C@H](O)[C@H]2O)[C@H]2[C@@H]1[C@H](O)C[C@]2(C)OC(C)=O [Barlerin],12,26,,
COc1ccc(C[C@@H]2c3cc(Oc4cc(C[C@@H]5c6cc(OC)c(OC)cc6CCN5C)ccc4O)c(OC)cc3CCN2C)cc1 [Neferine],,,25,9
NC[C@H]1O[C@H](O[C@H]2[C@H](O)[C@@H](O[C@H]3O[C@H](CO)[C@@H](O)[C@H](N)[C@H]3O)[C@H](N)C[C@@H]2N)[C@H](N)[C@@H](O)[C@@H]1O [Bekanamycin],23,10,,
Cc1c(O)c(C)c2c(c1O)C(=O)C[C@@H](c1ccc(O)cc1)O2 [Farrerol],,,6,9
C[C@H](CCC(=O)O)[C@H]1CC[C@H]2[C@@H]3[C@H](O)C[C@@H]4C[C@H](O)CC[C@]4(C)[C@H]3C[C@H](O)[C@]12C [Cholic acid],,,0,8
O=C1Nc2ccc(Cl)cc2[C@@](C#CC2CC2)(C(F)(F)F)O1 [Efavirenz],29,29,,
C=C1CC/C=C(\C)CC[C@@H]2[C@@H]1CC2(C)C [β-Caryophyllene],28,27,,
CC(C)/N=c1\cc2n(-c3ccc(Cl)cc3)c3ccccc3nc-2cc1Nc1ccc(Cl)cc1 [Clofazimine],6,7,,
OC[C@H]1O[C@@H](Oc2ccc3c(c2)OC[C@H]2c4cc5c(cc4O[C@@H]32)OCO5)[C@H](O)[C@@H](O)[C@@H]1O [Trifolirhizin],11,0,,
C=C(C)[C@@H]1CC[C@]2(C)CC[C@]3(C)[C@H](CC[C@@H]4[C@@]5(C)CC[C@H](O)C(C)(C)[C@@H]5CC[C@]43C)[C@@H]12 [Lupeol],0,0,,
CC(C)=CCc1cc(-c2coc3cc(O)ccc3c2=O)ccc1O [Neobavaisoflavone],10,21,,
CC(=O)OC(C)(C)/C=C/C(=O)[C@](C)(O)[C@H]1[C@H](O)C[C@@]2(C)[C@@H]3CC=C4[C@@H](C=C(O)C(=O)C4(C)C)[C@]3(C)C(=O)C[C@]12C [Cucurbitacin E],0,11,,
C=C(C)[C@@H]1CCC2=CC(=O)C[C@@H](C)[C@]2(C)C1 [Nootkatone],28,20,,
CC[C@H]1C[C@@H]2CN3CCc4c([nH]c5ccccc45)[C@](C(=O)OC)(C2)[C@H]13 [Coronaridine],0,5,,
COc1ccc(C(C)=O)c(O)c1 [Paeonol],,,0,0
COC(=O)c1c2c(c3ccccc3c1O)OC(C)(C)C=C2 [Mollugin],1,12,,
CC12CCC(C1)C(C)(C)C2O (centres unmarked) [Fenchyl alcohol],2,0,,
Cc1[nH]ccc2c1[nH]c1cc(=O)ccc12 [Harmol],0,0,,
